Values of other authors, collected in US20080253970A1, “Stable Pharmaceutical Drug Products” (Schering Corporation, priority 2007, published 2008).

solubility in ethanol | Compound
partially soluble in ethanol | CC1(C)O[C@@H]2C[C@H]3[C@@H]4C[C@H](F)C5=CC(=O)C=C[C@]5(C)[C@H]4[C@@H](O)C[C@]3(C)[C@]2(C(=O)CO)O1 [flunisolide]
partially soluble in ethanol | C[N+]1(C)[C@@H]2C[C@@H](OC(=O)C(O)(c3cccs3)c3cccs3)C[C@H]1[C@@H]1O[C@@H]12 [tiotropium]
partially soluble in ethanol | C[C@@H]1C[C@H]2[C@@H]3CCC4=CC(=O)C=C[C@]4(C)[C@@]3(Cl)[C@@H](O)C[C@]2(C)[C@@]1(OC(=O)c1ccco1)C(=O)CCl [mometasone furoate, 9,21-Dichloro-11(beta), 17-dihydroxy-16(alpha)-methylpregna-1,4-diene-3,20-dione17-(2 Furoate)]
